From the CheMixHub viscosity set

Assay: xn = mol fraction of the nth substance listed

COCCOC + CCCO
viscosity [mPa·s]
Settings | 298.15 K | 308.15 K
101 kPa, x1 = 0.0072 | 1.874 | 1.467
101 kPa, x1 = 0.01 | 1.864 | 1.448
101 kPa, x1 = 0.0347 | 1.697 | 1.336
101 kPa, x1 = 0.0524 | 1.598 | 1.274
101 kPa, x1 = 0.06899 | 1.588 | –
101 kPa, x1 = 0.0834 | 1.443 | 1.16
101 kPa, x1 = 0.1171 | 1.304 | 1.055
101 kPa, x1 = 0.1378 | 1.223 | 1.008
101 kPa, x1 = 0.1429 | 1.264 | –
101 kPa, x1 = 0.1976 | 1.05 | 0.902
101 kPa, x1 = 0.2223 | 1.056 | –
101 kPa, x1 = 0.2436 | 0.946 | 0.816
101 kPa, x1 = 0.2925 | 0.879 | 0.741
101 kPa, x1 = 0.3078 | 0.8591 | –
101 kPa, x1 = 0.3507 | 0.807 | 0.682
101 kPa, x1 = 0.4001 | 0.7303 | –
101 kPa, x1 = 0.4082 | 0.747 | 0.645
101 kPa, x1 = 0.4355 | 0.695 | 0.622
101 kPa, x1 = 0.4665 | 0.684 | 0.601
101 kPa, x1 = 0.5001 | 0.6269 | –
101 kPa, x1 = 0.5064 | 0.635 | 0.579
101 kPa, x1 = 0.5539 | 0.604 | 0.557
101 kPa, x1 = 0.605 | 0.573 | 0.533
101 kPa, x1 = 0.6088 | 0.5528 | –
101 kPa, x1 = 0.6728 | 0.54 | 0.508
101 kPa, x1 = 0.7247 | 0.519 | 0.495
101 kPa, x1 = 0.7273 | 0.4945 | –
101 kPa, x1 = 0.7669 | 0.503 | 0.483
101 kPa, x1 = 0.8206 | 0.488 | 0.475
101 kPa, x1 = 0.8572 | 0.4482 | –
101 kPa, x1 = 0.8747 | 0.473 | 0.479
101 kPa, x1 = 0.9605 | 0.461 | 0.45
101 kPa, x2 = 0.0061 | 0.452 | 0.448
101.33 kPa, x1 = 0.0095 | 1.881 | –
101.33 kPa, x1 = 0.0215 | 1.798 | –
101.33 kPa, x1 = 0.0405 | 1.678 | –
101.33 kPa, x1 = 0.0628 | 1.552 | –
101.33 kPa, x1 = 0.0941 | 1.397 | –
101.33 kPa, x1 = 0.1096 | 1.329 | –
101.33 kPa, x1 = 0.1355 | 1.228 | –
101.33 kPa, x1 = 0.1741 | 1.109 | –
101.33 kPa, x1 = 0.2034 | 1.024 | –
101.33 kPa, x1 = 0.2436 | 0.942 | –
101.33 kPa, x1 = 0.2926 | 0.842 | –
101.33 kPa, x1 = 0.3474 | 0.764 | –
101.33 kPa, x1 = 0.3848 | 0.722 | –
101.33 kPa, x1 = 0.4255 | 0.678 | –
101.33 kPa, x1 = 0.4764 | 0.636 | –
101.33 kPa, x1 = 0.5241 | 0.6 | –
101.33 kPa, x1 = 0.57 | 0.572 | –
101.33 kPa, x1 = 0.6239 | 0.536 | –
101.33 kPa, x1 = 0.6795 | 0.509 | –
101.33 kPa, x1 = 0.7142 | 0.495 | –
101.33 kPa, x1 = 0.7632 | 0.476 | –
101.33 kPa, x1 = 0.8198 | 0.459 | –
101.33 kPa, x1 = 0.8625 | 0.447 | –
101.33 kPa, x1 = 0.9004 | 0.439 | –
101.33 kPa, x1 = 0.9269 | 0.435 | –
101.33 kPa, x1 = 0.959 | 0.427 | –
101.33 kPa, x2 = 0.0158 | 0.424 | –

CCCCC(CC)COC(=O)CC(C(=O)OCC(CC)CCCC)S(=O)(=O)[O-].C[NH+]1C=CN=C1 (configuration not stated) + O
99.6 kPa, x2 = 0.09474
Settings | viscosity [mPa·s]
293.15 K | 3381
303.15 K | 1440
313.15 K | 684
323.15 K | 359

COC(C)=O + CCCCCCCCCCCCCCCC
298.15 K, 101.3 kPa
Settings | viscosity [mPa·s]
x1 = 0.0393 | 2.924
x1 = 0.118 | 2.619
x1 = 0.3657 | 1.819
x1 = 0.4814 | 1.491
x1 = 0.5357 | 1.35
x1 = 0.652 | 1.086
x1 = 0.7625 | 0.8431
x1 = 0.8682 | 0.6349
x1 = 0.9609 | 0.4379

OCCNCCO + CN1CCCC1=O
viscosity [mPa·s], 101 kPa
Settings | 293.15 K | 303.15 K | 313.15 K | 323.15 K
x2 = 0.1012 | 457.2 | 211.6 | 100.2 | 38.39
x2 = 0.1941 | – | 103.8 | 43.29 | 27
x2 = 0.2002 | 222.2 | 106.2 | 60.47 | 24.87
x2 = 0.3004 | 85.35 | 47.36 | 28.26 | 17.59
x2 = 0.4003 | 53.69 | 31.19 | 19.32 | 12.45
x2 = 0.4024 | – | 31.82 | 15.04 | 10.25
x2 = 0.4998 | 27.76 | 16.74 | 10.6 | 7.513
x2 = 0.5851 | – | 16.32 | 7.42 | 6.32
x2 = 0.6003 | 16.21 | 9.543 | 5.75 | 3.961
x2 = 0.7 | 7.618 | 5.537 | 4.107 | 3.18
x2 = 0.7962 | – | 8.38 | 4.04 | 3.22
x2 = 0.7997 | 4.326 | 3.448 | 2.746 | 2.257
x2 = 0.8994 | 2.841 | 2.318 | 1.927 | 1.63

COC(C)=O + CCCCCCCCCC
298.15 K, 101.3 kPa
Settings | viscosity [mPa·s]
x1 = 0.0803 | 0.7987
x1 = 0.1876 | 0.7291
x1 = 0.3354 | 0.6485
x1 = 0.4452 | 0.5969
x1 = 0.476 | 0.5809
x1 = 0.5538 | 0.5456
x1 = 0.618 | 0.5186
x1 = 0.7363 | 0.4714
x1 = 0.8315 | 0.4356

CCC(C)=O + CCCCCCC
298 K, 101.33 kPa
Settings | viscosity [mPa·s]
x2 = 0.1271 | 0.3686
x2 = 0.2092 | 0.3655
x2 = 0.3055 | 0.3637
x2 = 0.4593 | 0.3646
x2 = 0.5955 | 0.3649
x2 = 0.7044 | 0.3677
x2 = 0.8014 | 0.3721
x2 = 0.9011 | 0.3789

OCCNCCO + O=S1(=O)CCCC1
viscosity [mPa·s], 101 kPa
Settings | x2 = 0.0999 | x2 = 0.2999 | x2 = 0.4687 | x2 = 0.6712 | x2 = 0.8322
303.15 K | 262.7 | 125.4 | 63.49 | 14.99 | 12.62
323.15 K | 73.14 | 32.73 | 15.33 | 9.455 | 7.362
